# Patent EP0185020B1, “NI[…] PREPARATION THEREOF AND UTILIZATION THEREOF IN ANTICANCEROUS CHEMIOTHERAPY” (CENTRE NATIONAL DE LA RECHERCHE SCIENTIFIQUE (CNRS), priority 1984, dated 1985)
# Like-named read-outs stand apart in the source and are kept apart here.
# How the values were obtained:
# [1] = Acute lethal dose 50% (DL50 aiguë), i.p.; type: in vivo, souris B6D2F1/OLA; settings: for DL 50: i.p., mortality before day 8 in animals treated on day 1, 11520 min
# Source text: (§1) Des souris B6D2F1/OLA, mâles, sont inoculées avec 10^5 cellules de la souche leucémique L1210 par voie intrapéritonéale au jour 0 et divisées en groupes. Le premier est le groupe témoin et les autres sont traités avec les drogues à différentes concentrations au jour 1,5 et 9. Les composés sont injectés en suspension dans l'huile d'olive. La mortalité des animaux est observée et l'autopsie indique si elle est due à la leucémie ou à l'action toxique des produits.
# (§2) La dose létale 50% (DL50 aiguë) est déterminée en tenant compte de la mortalité survenue avant le huitième jour chez les animaux traités au jour J: 1. La médiane de survie des animaux traités (mT) et des animaux témoin (mC) a été établie et le test statistique non paramétrique de Wilcoxon a été utilisé. Les résultats sont considérés positifs si l'indice I (I = ^mT x 100) est supérieur à 125 et le test mC significatif à p ≼ 0,05. La valeur ∞ indique que 50% ou plus des animaux sont survivants au jour +60.
# souche leucémique L1210 = assay: Antitumour activity on L1210 leukaemia inoculated i.p. in mice (ICIG, Example 11); type: in vivo, souris B6D2F1/OLA; settings: for indices I: dose not given; for survie à 60 jours: à différentes doses
# Source text: L'activité oncostatique de ces dérivés nitrosés a été déterminée à l'ICIG de Villejuif (Service du Pr. Mathe), en suivant un protocole expérimental décrit: M. Hayat et Coll., Cancer Chemother. Phar- macol., 1979, 3,217-221, R. Maral et Coll., Eur. J. Med. Chem., soumis pour publication.
# as §1, §2
# Plus l'intervalle des doses à efficacité maximale, ayant donc I = ∞, est important, plus le produit est doué d'une activité intéressante sur la leucémie L1210.
# [2] = system: leucémie L 1210 greffée i.p.; assay: Antitumour activity on L1210 leukaemia grafted i.p. in mice, A1 and A2 injected separately (ICIG, Example 12); type: in vivo, souris B6D2F1/OLA; settings: for activité antitumorale sur la leucémie L 1210, in words: each isomer given separately i.v.; for T/C × 100: i.v.
# Source text: Au jour J: 0, des souris mâles B6D2F1 âgées de trois mois reçoivent par voie intrapéritonéale 10^5 cellules de la souche leucémique L 1210. Les animaux sont répartis en lots de 8 à 10 animaux pour les groupes témoins et de 6 à 8 animaux pour les groupes traités. Aux jours J : 1, J : 5, J : 9, les animaux reçoivent par voie intrapéritonéale ou intraveineuse le traitement à différentes doses. La CNCC est administrée en suspension dans l'huile d'olive. Les produits selon l'invention sont administrés dans du sérum physiologique. La mortalité est enregistrée tous les jours. La médiane de survie des animaux traités et des animaux témoins a été déterminée. Les résultats sont considérés comme positifs lorsque l'index I = [formula] est supérieur à 125.
# La valeur ∞ signifie que 50 à 100% des animaux sont survivants au jour J : 90.
# L'activité cytostatique sur la leucémie L 1210 de A, et A2 a été évaluée à l'ICIG chez des souris B6D2F1/OLA.
# II a en outre été procédé à l'ICIG à une étude de l'activité antitumorale sur la leucémie L 1210 de chaque isomère A, et AZ administré séparément par voie intraveineuse. Les résultats sont rassemblés sur le tableau IV. […] La comparaison des doses actives à celles de la CNCC est impossible pour les raisons d'insolubilité de la CNCC énoncées précédemment.
# [3] = system: M 555 ovarienne (implanté en sous-cutané); parameters: key: N.S.: Non significatif; ∞: 50% en plus des animaux traités sont guéris; settings: M 555 ovarienne s.c., jours 1,5,9, cited from earlier work
# [4] = system: Leucémie L 1210 (greffée par voie i.c.); settings: Leucémie L 1210 i.c., jours 1,5,9, cited from earlier work
# [5] = system: Adénocarcinome mammaire TM2 (implanté en sous-cutané); parameters: key: N.S.: Non significatif; ∞: 50% en plus des animaux traités sont guéris; settings: jours 1,5,9, cited from earlier work
# [6] = system: Fibrosarcome I.C.I.G. C1 (implanté en sous-cutané); parameters: key: N.S.: Non significatif; ∞: 50% en plus des animaux traités sont guéris; settings: jours 1,5,9, cited from earlier work
# [7] = system: Carcinome pulmonaire de Lewis (implanté en sous-cutané); parameters: key: N.S.: Non significatif; ∞: 50% en plus des animaux traités sont guéris; settings: jours 1,5,9, cited from earlier work
# [8] = system: Mélano-carcinome B 16 (implanté en sous-cutané); settings: Mélano-carcinome B 16 s.c., jours 1,5,9, cited from earlier work
# [9] = system: Gliome 26 (implanté en sous-cutané); parameters: key: N.S.: Non significatif; ∞: 50% en plus des animaux traités sont guéris; settings: Gliome 26 s.c., jours 1,5,9, cited from earlier work
# [10] = system: Carcinome du côlon (côlon 26) (implanté en sous-cutané); parameters: key: N.S.: Non significatif; ∞: 50% en plus des animaux traités sont guéris; settings: Carcinome du côlon (côlon 26) s.c., jours 1,5,9, cited from earlier work
compound,measurement,setting,value
"O=NN(CCCl)C(=O)NCCSC(c1ccccc1)(c1ccccc1)c1ccccc1 [(9) ICIG 2069, S-trityl N-[N-(chloro-2 éthyl) N-nitrosocarbamoyl] cystéamine]","toxicité, in words",[1],n'est pas toxique
same,I = T/c × 100,"souche leucémique L1210; 250 mg/kg i.p., jours 1,5,9, résultats partiels",> 278
same,I = T/c × 100,"souche leucémique L1210; 625 mg/kg i.p., jours 1,5,9, résultats partiels",> 278
C[S+]([O-])CCN(N=O)C(=O)NCCCl (centres unmarked) [A1],"activité antitumorale sur la leucémie L 1210, in words",[2],faible activité
same,T/C × 100,[2]; 5 mg/kg,100
same,T/C × 100,[2]; 10 mg/kg,100
same,T/C × 100,[2]; 20 mg/kg,133
same,T/C × 100,[2]; 30 mg/kg,133
same,T/C × 100,[2]; 40 mg/kg,158
same,T/C × 100,[2]; 50 mg/kg,158
same,T/C × 100,[2]; 60 mg/kg,Toxique
CC1(C)O[C@@H]2[C@@H](COC(=O)c3ccc([N+](=O)[O-])cc3)OC(NC(=O)N(CCCl)N=O)[C@@H]2O1 (some centres unmarked) [RFCNU],Augmentation de la durée de survie (I.L.S.: T/C×100),[3]; 20 mg/kg I.P.,N.S.
same,Augmentation de la durée de survie (I.L.S.: T/C×100),[4]; 20 mg/kg I.P.,167
same,Augmentation de la durée de survie (I.L.S.: T/C×100),[5]; 20 mg/kg I.P.,N.S.
same,Augmentation de la durée de survie (I.L.S.: T/C×100),[6]; 20 mg/kg I.P.,∞ (50% en plus des animaux traités sont guéris)
same,Augmentation de la durée de survie (I.L.S.: T/C×100),[7]; 20 mg/kg I.P.,N.S.
same,Augmentation de la durée de survie (I.L.S.: T/C×100),[8]; 20 mg/kg I.P.,144
same,Augmentation de la durée de survie (I.L.S.: T/C×100),[9]; 20 mg/kg I.P.,N.S.
same,Augmentation de la durée de survie (I.L.S.: T/C×100),[10]; 20 mg/kg I.P.,N.S.
O=NN(CCCl)C(=O)NCCO [HECNU],Augmentation de la durée de survie (I.L.S.: T/C×100),[3]; 10 mg/kg I.P.,210
same,Augmentation de la durée de survie (I.L.S.: T/C×100),[4]; 10 mg/kg I.P.,∞ (50% en plus des animaux traités sont guéris)
same,Augmentation de la durée de survie (I.L.S.: T/C×100),[5]; 10 mg/kg I.P.,165
same,Augmentation de la durée de survie (I.L.S.: T/C×100),[6]; 10 mg/kg I.P.,N.S.
same,Augmentation de la durée de survie (I.L.S.: T/C×100),[7]; 10 mg/kg I.P.,∞ (50% en plus des animaux traités sont guéris)
same,Augmentation de la durée de survie (I.L.S.: T/C×100),[8]; 10 mg/kg I.P.,198
same,Augmentation de la durée de survie (I.L.S.: T/C×100),[9]; 10 mg/kg I.P.,182
same,Augmentation de la durée de survie (I.L.S.: T/C×100),[10]; 10 mg/kg I.P.,∞ (50% en plus des animaux traités sont guéris)
"O=NN(CCCl)C(=O)NCCS [(1) ICIG 2016, N-[N-(chloro-2 éthyl) N-nitrosocarbamoyl] cystéamine]",DL 50,[1],19 mg/kg
same,I = T/c × 100,"souche leucémique L1210; 0,8 mg/kg i.p., jours 1,5,9",162
same,I = T/c × 100,"souche leucémique L1210; 0,32 mg/kg i.p., jours 1,5,9",265
same,I = T/c × 100,"souche leucémique L1210; 2 mg/kg i.p., jours 1,5,9",188
same,% de survivants à 60 jours,"souche leucémique L1210; 5 mg/kg i.p., jours 1,5,9",100%
same,I = T/c × 100,"souche leucémique L1210; 5 mg/kg i.p., jours 1,5,9",∞ (La valeur ∞ indique que 50% ou plus des animaux sont survivants au jour +60)
same,% de survivants à 60 jours,"souche leucémique L1210; 10 mg/kg i.p., jours 1,5,9",100%
same,I = T/c × 100,"souche leucémique L1210; 10 mg/kg i.p., jours 1,5,9",∞ (La valeur ∞ indique que 50% ou plus des animaux sont survivants au jour +60)
same,% de survivants à 60 jours,"souche leucémique L1210; 15 mg/kg i.p., jour + 1",100%
same,I = T/c × 100,"souche leucémique L1210; 15 mg/kg i.p., jour + 1",∞ (La valeur ∞ indique que 50% ou plus des animaux sont survivants au jour +60)
same,% de survivants à 60 jours,"souche leucémique L1210; 12,5 mg/kg i.p., jours 1,5,9",100%
same,I = T/c × 100,"souche leucémique L1210; 12,5 mg/kg i.p., jours 1,5,9",∞ (La valeur ∞ indique que 50% ou plus des animaux sont survivants au jour +60)
same,indices I,souche leucémique L1210,infini
same,survie à 60 jours,souche leucémique L1210,100%
"CSCCNC(=O)N(CCCl)N=O [(3) ICIG 2017, S-méthyl N-[N-(chloro-2 éthyl)N-nitrosocarbamoyl] cystéamine]",DL 50,[1],22 mg/kg
same,I = T/c × 100,"souche leucémique L1210; 0,8 mg/kg i.p., jours 1,5,9",167
same,I = T/c × 100,"souche leucémique L1210; 0,32 mg/kg i.p., jours 1,5,9",133
same,I = T/c × 100,"souche leucémique L1210; 2 mg/kg i.p., jours 1,5,9",158
same,% de survivants à 60 jours,"souche leucémique L1210; 5 mg/kg i.p., jours 1,5,9",100%
same,I = T/c × 100,"souche leucémique L1210; 5 mg/kg i.p., jours 1,5,9",∞ (La valeur ∞ indique que 50% ou plus des animaux sont survivants au jour +60)
same,I = T/c × 100,"souche leucémique L1210; 15 mg/kg i.p., jours 1,5,9",156
same,% de survivants à 60 jours,"souche leucémique L1210; 12,5 mg/kg i.p., jours 1,5,9",87%
same,I = T/c × 100,"souche leucémique L1210; 12,5 mg/kg i.p., jours 1,5,9",∞ (La valeur ∞ indique que 50% ou plus des animaux sont survivants au jour +60)
same,indices I,souche leucémique L1210,infini
same,survie à 60 jours,souche leucémique L1210,100%
C[S+]([O-])CCNC(=O)N(CCCl)N=O (centres unmarked) [A2],"activité antitumorale sur la leucémie L 1210, in words",[2],forte activité
same,T/C × 100,[2]; 1 mg/kg,100
same,T/C × 100,[2]; 5 mg/kg,∞ (La valeur ∞ signifie que 50 à 100% des animaux sont survivants au jour J : 90)
same,T/C × 100,[2]; 10 mg/kg,∞ (La valeur ∞ signifie que 50 à 100% des animaux sont survivants au jour J : 90)
same,T/C × 100,[2]; 20 mg/kg,63
same,T/C × 100,[2]; 30 mg/kg,63
same,T/C × 100,[2]; 40 mg/kg,63
"CC(=O)SCCNC(=O)N(CCCl)N=O [(5) ICIG 2018, S-acétyl N-[N-(chloro-2 éthyl) N-nitrosocarbamoyl] cystéamine]",DL 50,[1],25 mg/kg
same,I = T/c × 100,"souche leucémique L1210; 0,64 mg/kg i.p., jours 1,5,9",100
same,I = T/c × 100,"souche leucémique L1210; 4 mg/kg i.p., jours 1,5,9",158
same,% de survivants à 60 jours,"souche leucémique L1210; 5 mg/kg i.p., jours 1,5,9",14%
same,I = T/c × 100,"souche leucémique L1210; 5 mg/kg i.p., jours 1,5,9",217
same,% de survivants à 60 jours,"souche leucémique L1210; 10 mg/kg i.p., jours 1,5,9",100%
same,I = T/c × 100,"souche leucémique L1210; 10 mg/kg i.p., jours 1,5,9",∞ (La valeur ∞ indique que 50% ou plus des animaux sont survivants au jour +60)
same,% de survivants à 60 jours,"souche leucémique L1210; 15 mg/kg i.p., jours 1,5,9",25%
same,I = T/c × 100,"souche leucémique L1210; 15 mg/kg i.p., jours 1,5,9",490
same,I = T/c × 100,"souche leucémique L1210; 20 mg/kg i.p., jours 1,5,9",211
same,I = T/c × 100,"souche leucémique L1210; 1,6 mg/kg i.p., jours 1,5,9",117
same,% de survivants à 60 jours,"souche leucémique L1210; 12,5 mg/kg i.p., jours 1,5,9",80%
same,I = T/c × 100,"souche leucémique L1210; 12,5 mg/kg i.p., jours 1,5,9",∞ (La valeur ∞ indique que 50% ou plus des animaux sont survivants au jour +60)
same,indices I,souche leucémique L1210,infini
same,survie à 60 jours,souche leucémique L1210,100%
